Data reported in patent US5118678A, “Carbamates of rapamycin” (American Home Products Corporation, priority 1991, dated 1992).
Where two headings read alike, the source gives them in different places.

Assays:
[1] = tested on: cells from the thymus of normal BALB/c mice (lymphocyte proliferation); assay: comitogen-induced thymocyte proliferation procedure (LAF); assay type: cell-based; conditions: Mus musculus; for IC50: read-out: LAF IC50
Description: (§1) Immunosuppressive activity was evaluated in an in vitro standard pharmacological test procedure to measure lymphocyte proliferation (LAF) and in two in vivo standard pharmacological test procedures. The first in vivo procedure was a popliteal lymph node (PLN) test procedure which measured the effect of compounds of this invention on a mixed lymphocyte reaction and the second in vivo procedure evaluated the survival time of a pinch skin graft.
Briefly, cells from the thymus of normal BALB/c mice are cultured for 72 hours with PHA and IL-1 and pulsed with tritiated thymidine during the last six hours. […] Cells are harvested and incorporated radioactivity is determined. Inhibition of lymphoproliferation is assessed as percent change in counts per minute from non-drug treated controls. The results are expressed as an IC50. [formula]

[2] = tested on: pinch skin graft from male DBA/2 donors transplanted to male BALB/c recipients; assay: survival time of pinch skin graft; assay type: in vivo, DBA/2 donors (mice); conditions: intraperitoneally; mean ± S.D.; untreated grafts typically rejected within 6-7 days
Description: as §1
The second in vivo test procedure is designed to determine the survival time of pinch skin graft from male DBA/2 donors transplanted to male BALB/c recipients. The method is adapted from Billingham R. E. and Medawar P. B., J. Exp. Biol. 28:385-402, (1951). Briefly, a pinch skin graft from the donor is grafted on the dorsum of the recipient as a homograft, and an autograft is used as control in the same region. […] Untreated recipients serve as rejection control. The graft is monitored daily and observations are recorded until the graft becomes dry and forms a blackened scab. This is considered as the rejection day. The mean graft survival time (number of days ±S.D.) of the drug treatment group is compared with the control group.

[3] = FASEB 1989; Lancet 1978; cited from earlier work
[4] = tested on: experimental allergic encephalomyelitis model, a model for multiple sclerosis; conditions: R. Martel et al. 1977; cited from earlier work
IgE-like antibodies = conditions: R. Martel et al. 1977; cited from earlier work
[5] = tested on: popliteal lymph node, mixed lymphocyte reaction; assay: popliteal lymph node (PLN) test procedure (in vivo mixed lymphocyte reaction); design: species or system C3H mice (recipients), BALB/c donors; conditions: for PLN (ratio): p.o. daily Day 0 to Day 4, rapamycin = 1.00
Description: as §1
A mixed lymphocyte reaction (MLR) occurs when lymphoid cells from genetically distinct animals are combined in tissue culture. Each stimulates the other to undergo blast transformation which results in increased DNA synthesis that can be quantified by the incorporation of tritiated thymidine. Since stimulating a MLR is a function of disparity at Major Histocompatibility antigens, an in vivo popliteal lymph node (PLN) test procedure closely correlates to host vs. graft disease. Briefly, irradiated spleen cells from BALB/c donors are injected into the right hind foot pad of recipient C3H mice. The drug is given daily, p.o. from Day 0 to Day 4. On Day 3 and Day 4, tritiated thymidine is given i.p., b.i.d. On Day 5, the hind popliteal lymph nodes are removed and dissolved, and radioactivity counted. The corresponding left PLN serves as the control for the PLN from the injected hind foot. Percent suppression is calculated using the non-drug treated animals as allogenic control. […] Results are expressed by the following ratio: [formula]

[6] = thymocytes cultured 72 h with PHA and IL-1, tritiated thymidine incorporation, vs non-drug treated controls

Which results are given for `CO[C@H]1C[C@@H]2CC[C@@H](C)[C@@](O)(O2)C(=O)C(=O)N2CCCC[C@H]2C(=O)O[C@H]([C@H](C)C[C@@H]2CC[C@@H](OC(=O)Nc3ccc(C)cc3)[C@H](OC)C2)CC(=O)[C@H](C)/C=C(\C)[C@@H](O)[C@@H](OC)C(=O)[C@H](C)C[C@H](C)/C=C/C=C/C=C/1C` [Example 8, Rapamycin-42-ester with (4-methylphenyl)carbamic acid]?
IC50 [1, 6]: 7.4 nM; Skin Graft (mean graft survival time, days + SD) [2]: 8.8 ± 1.3 days

Which immunosuppressive effects [3] does the source give for `CO[C@H]1C[C@@H]2CC[C@@H](C)[C@@](O)(O2)C(=O)C(=O)N2CCCC[C@H]2C(=O)O[C@H]([C@H](C)C[C@@H]2CC[C@@H](O)[C@H](OC)C2)CC(=O)[C@H](C)/C=C(\C)[C@@H](O)[C@@H](OC)C(=O)[C@H](C)C[C@H](C)/C=C/C=C/C=C/1C` [Rapamycin] here?
Its immunosuppressive effects is “immunosuppressive effects”.

What about the “effect in experimental allergic encephalomyelitis model” value [4] of the same molecule?
Its value is “effective in the experimental allergic encephalomyelitis model”.

And the IC50 ([1]; 72 h)?
The IC50 was 3.2 to 9.4 nM.

And the “Skin Graft (mean graft survival time, days + SD)” value [2]?
Its value is 12.0 ± 1.7 days.

And the “inhibition of formation of IgE-like antibodies” value (IgE-like antibodies)?
Its value is “effectively inhibited the formation of IgE-like antibodies”.

What about the “percent suppression (PLN)” value ([5]; 6 mg/kg, p.o., vs non-drug treated animals as allogenic control) of the same molecule?
Its value is 86%.

And the “PLN (ratio)” value [5]?
The value was 1.00 ratio.

With `CO[C@H]1C[C@@H]2CC[C@@H](C)[C@@](O)(O2)C(=O)C(=O)N2CCCC[C@H]2C(=O)O[C@H]([C@H](C)C[C@@H]2CC[C@@H](OC(=O)Nc3ccccc3)[C@H](OC)C2)CC(=O)[C@H](C)/C=C(\C)[C@@H](OC(=O)Nc2ccccc2)[C@@H](OC)C(=O)[C@H](C)C[C@H](C)/C=C/C=C/C=C/1C` [Example 11, Rapamycin-31,42-diester with phenylcarbamic acid] as the molecule, how does the IC50 [1, 6] read?
Its IC50 is over 1000 nM.

For `CO[C@H]1C[C@@H]2CC[C@@H](C)[C@@](O)(O2)C(=O)C(=O)N2CCCC[C@H]2C(=O)O[C@H]([C@H](C)C[C@@H]2CC[C@@H](OC(=O)Nc3ccc([N+](=O)[O-])cc3)[C@H](OC)C2)CC(=O)[C@H](C)/C=C(\C)[C@@H](OC(=O)Nc2ccc([N+](=O)[O-])cc2)[C@@H](OC)C(=O)[C@H](C)C[C@H](C)/C=C/C=C/C=C/1C` [Example 5, Rapamycin-31,42-diester with (4-nitrophenyl)carbamic acid], which inhibition at 0.1 µM ([1]; read-out: LAF percent inhibition) is on record?
The inhibition at 0.1 µM was 3%.

With `CO[C@H]1C[C@@H]2CC[C@@H](C)[C@@](O)(O2)C(=O)C(=O)N2CCCC[C@H]2C(=O)O[C@H]([C@H](C)C[C@@H]2CC[C@@H](OC(=O)Nc3ccccc3)[C@H](OC)C2)CC(=O)[C@H](C)/C=C(\C)[C@@H](O)[C@@H](OC)C(=O)[C@H](C)C[C@H](C)/C=C/C=C/C=C/1C` [Example 2, Rapamycin 42-ester with phenylcarbamic acid] as the molecule, how does the IC50 [1, 6] read?
Its IC50 is 3.9 nM.

And the “Skin Graft (mean graft survival time, days + SD)” value [2]?
Its value is 8.5 ± 1.2 days.

And the “PLN (ratio)” value [5]?
Its value is 0.47 ratio.

For `C=CC[C@@H]1/C=C(\C)C[C@H](C)C[C@H](OC)[C@H]2O[C@@](O)(C(=O)C(=O)N3CCCC[C@H]3C(=O)O[C@H](/C(C)=C/[C@@H]3CC[C@@H](O)[C@H](OC)C3)[C@H](C)[C@@H](O)CC1=O)[C@H](C)C[C@@H]2OC` [FK-506], which immunosuppressive effects [3] is on record?
The immunosuppressive effects was “effective as immunosuppressive agents”.

With `CO[C@H]1C[C@@H]2CC[C@@H](C)[C@@](O)(O2)C(=O)C(=O)N2CCCC[C@H]2C(=O)O[C@H]([C@H](C)C[C@@H]2CC[C@@H](O[Si](C)(C)C(C)(C)C)[C@H](OC)C2)CC(=O)[C@H](C)/C=C(\C)[C@@H](OC(=O)Nc2ccc(F)cc2F)[C@@H](OC)C(=O)[C@H](C)C[C@H](C)/C=C/C=C/C=C/1C` [Example 14, Rapamycin-42-tert-butyldimethylsilyl ether-31-ester with (2,4-difluorophenyl)carbamic acid] as the molecule, how does the IC50 ([1]; 72 h) read?
Its IC50 is over 1000 nM.

With `CO[C@H]1C[C@@H]2CC[C@@H](C)[C@@](O)(O2)C(=O)C(=O)N2CCCC[C@H]2C(=O)O[C@H]([C@H](C)C[C@@H]2CC[C@@H](OC(=O)Nc3ccc(C(F)(F)F)cc3)[C@H](OC)C2)CC(=O)[C@H](C)/C=C(\C)[C@@H](O)[C@@H](OC)C(=O)[C@H](C)C[C@H](C)/C=C/C=C/C=C/1C` [Example 4, Rapamycin-42-ester with [4-(trifluoromethyl)phenyl]carbamic acid] as the molecule, how does the IC50 [1, 6] read?
The IC50 was 57.9 nM.

And the “PLN (ratio)” value [5]?
Its value is 0.90 ratio.

Which IC50 [1, 6] does the source give for `CO[C@H]1C[C@@H]2CC[C@@H](C)[C@@](O)(O2)C(=O)C(=O)N2CCCC[C@H]2C(=O)O[C@H]([C@H](C)C[C@@H]2CC[C@@H](OC(=O)Nc3ccc(F)cc3F)[C@H](OC)C2)CC(=O)[C@H](C)/C=C(\C)[C@@H](OC(=O)Nc2ccc(F)cc2F)[C@@H](OC)C(=O)[C@H](C)C[C@H](C)/C=C/C=C/C=C/1C` [Example 10, Rapamycin-31,42-diester with (2,4-difluorophenyl)carbamic acid] here?
The IC50 was over 1000 nM.

Which results are given for `CO[C@H]1C[C@@H]2CC[C@@H](C)[C@@](O)(O2)C(=O)C(=O)N2CCCC[C@H]2C(=O)O[C@H]([C@H](C)C[C@@H]2CC[C@@H](OC(=O)Nc3ccc([N+](=O)[O-])cc3)[C@H](OC)C2)CC(=O)[C@H](C)/C=C(\C)[C@@H](O)[C@@H](OC)C(=O)[C@H](C)C[C@H](C)/C=C/C=C/C=C/1C` [Example 6, Rapamycin-42-ester with (4-nitrophenyl)carbamic acid]?
IC50 [1, 6]: 10.4 nM; Skin Graft (mean graft survival time, days + SD) [2]: 8.3 ± 1.0 days; PLN (ratio) [5]: 0.25 ratio

For `CO[C@H]1C[C@@H]2CC[C@@H](C)[C@@](O)(O2)C(=O)C(=O)N2CCCC[C@H]2C(=O)O[C@H]([C@H](C)C[C@@H]2CC[C@@H](OC(=O)Nc3ccc(F)cc3)[C@H](OC)C2)CC(=O)[C@H](C)/C=C(\C)[C@@H](O)[C@@H](OC)C(=O)[C@H](C)C[C@H](C)/C=C/C=C/C=C/1C` [Example 1, Rapamycin 42-ester with (4-fluorophenyl)carbamic acid], which IC50 [1, 6] is on record?
The IC50 was 8.6 nM.

And the “Skin Graft (mean graft survival time, days + SD)” value [2]?
The value was 8.5 ± 1.6 days.

And the “PLN (ratio)” value [5]?
Its value is 0.71 ratio.

For `CO[C@H]1C[C@@H]2CC[C@@H](C)[C@@](O)(O2)C(=O)C(=O)N2CCCC[C@H]2C(=O)O[C@H]([C@H](C)C[C@@H]2CC[C@@H](OC(=O)Nc3ccc(F)cc3)[C@H](OC)C2)CC(=O)[C@H](C)/C=C(\C)[C@@H](OC(=O)Nc2ccc(F)cc2)[C@@H](OC)C(=O)[C@H](C)C[C@H](C)/C=C/C=C/C=C/1C` [Example 12, Rapamycin-31,42-diester with (4-fluorophenyl)carbamic acid], which IC50 [1, 6] is on record?
The IC50 was over 1000 nM.

Which IC50 [1, 6] does the source give for `CO[C@H]1C[C@@H]2CC[C@@H](C)[C@@](O)(O2)C(=O)C(=O)N2CCCC[C@H]2C(=O)O[C@H]([C@H](C)C[C@@H]2CC[C@@H](O)[C@H](OC)C2)CC(=O)[C@H](C)/C=C(\C)[C@@H](OC(=O)Nc2ccc(F)cc2F)[C@@H](OC)C(=O)[C@H](C)C[C@H](C)/C=C/C=C/C=C/1C` [Example 15, Rapamycin-31-ester with (2,4-difluorophenyl)carbamic acid] here?
The IC50 was over 1000 nM.

With `CO[C@H]1C[C@@H]2CC[C@@H](C)[C@@](O)(O2)C(=O)C(=O)N2CCCC[C@H]2C(=O)O[C@H]([C@H](C)C[C@@H]2CC[C@@H](OC(=O)Nc3ccc(C(F)(F)F)cc3)[C@H](OC)C2)CC(=O)[C@H](C)/C=C(\C)[C@@H](OC(=O)Nc2ccc(C(F)(F)F)cc2)[C@@H](OC)C(=O)[C@H](C)C[C@H](C)/C=C/C=C/C=C/1C` [Example 3, Rapamycin-31,42-diester with [4-(trifluoromethyl)phenyl]carbamic acid] as the molecule, how does the IC50 [1, 6] read?
Its IC50 is over 1000 nM.

What does the source list for `CO[C@H]1C[C@@H]2CC[C@@H](C)[C@@](O)(O2)C(=O)C(=O)N2CCCC[C@H]2C(=O)O[C@H]([C@H](C)C[C@@H]2CC[C@@H](OC(=O)Nc3ccc(F)cc3F)[C@H](OC)C2)CC(=O)[C@H](C)/C=C(\C)[C@@H](O)[C@@H](OC)C(=O)[C@H](C)C[C@H](C)/C=C/C=C/C=C/1C` [Example 9, Rapamycin-42-ester with (2,4-difluorophenyl)carbamic acid]?
IC50 [1, 6]: 8.7 nM; Skin Graft (mean graft survival time, days + SD) [2]: 8.0 ± 1.7 days; PLN (ratio) [5]: 0.72 ratio
